Assay results published in patent US20260334439A1, “BCAT2 INHIBITORS” (Agios Pharmaceuticals, Inc., priority 2023, published 2026).

Experiments:
BCAT2 [1] = molecular target: T1, BCAT2 (Homo sapiens, UniProt O15382); assay: BCAT2 cell inhibition using engineered A549 cells (MUT KO, BCAT1 KO; 13C6-KMV formation by LC-MS/MS); type: cell-based; parameters: expressed endogenous BCAT2; endogenous in cells; host or cells: A549 cells, MUT knockout and BCAT1 knockout
T1 sequence (O15382 28-392): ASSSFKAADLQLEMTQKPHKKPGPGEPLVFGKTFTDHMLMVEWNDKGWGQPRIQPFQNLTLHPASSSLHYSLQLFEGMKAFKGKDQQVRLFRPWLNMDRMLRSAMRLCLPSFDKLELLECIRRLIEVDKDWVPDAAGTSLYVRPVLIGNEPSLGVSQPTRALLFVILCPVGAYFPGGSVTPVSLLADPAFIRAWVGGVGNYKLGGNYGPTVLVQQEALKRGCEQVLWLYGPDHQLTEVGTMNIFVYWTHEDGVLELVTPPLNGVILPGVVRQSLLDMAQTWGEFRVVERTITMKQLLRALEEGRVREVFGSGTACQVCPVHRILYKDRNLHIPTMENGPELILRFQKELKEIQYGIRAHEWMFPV
Procedure, shortened: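 Medium 13C6-KMV formation is read by LC-MS/MS after PFBHA derivatization with d8-KMV internal standard. Cells are CRISPR MUT/BCAT1 double-knockout A549 expressing endogenous BCAT2, given compound 15 min before labelled isoleucine (800 uM, added 1:1) for 24 h. CTG viability run in parallel; replicates averaged.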

BCAT2 [2] = molecular target: T1, BCAT2; assay: BCAT2 in vitro enzyme inhibition assay (hBCAT2, glutamate dehydrogenase/diaphorase/resazurin coupled fluorescence read); type: biochemical; details: hBCAT2, 1 h preincubation at 25° C., one hour reaction; average where tested multiple times
Procedure, shortened: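 Coupled GDH/diaphorase/resazurin fluorescence (Ex 540/Em 590) read after 1 h reaction at 25 °C, SDS-stopped; enzyme (0.33 μg/mL in mix) first preincubated 1 h with compound, 10-point 3-fold series from 100 μM final, Tris pH 8.0 buffer with NaCl, BSA; technical duplicates, averaged across tests.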

IC50 (BCAT2 [1]) | IC50 (BCAT2 [2]) | Compound
100 to 500 nM | < 100 nM | CN1C[C@H](NC(=O)c2cc(Cl)ccc2F)C[C@H](n2c(-c3ccccc3F)nc3cnc(-c4nc[nH]n4)cc32)C1 [Example 145, 5-chloro-2-fluoro-N-((3R,5S)-5-(2-(2-fluorophenyl)-6-(1H-1,2,4-triazol-3-yl)-1H-imidazo[4,5-c]pyridin-1-yl)-1-methylpiperidin-3-yl)benzamide]
500 to 1000 nM | < 100 nM | CO[C@H]1C[C@H](NC(=O)c2cc(Cl)ccn2)C[C@H](n2c(CC(C)C)nc3cnc(-c4ncccn4)cc32)C1 [Example 117, 4-chloro-N-((1R,3S,5S)-3-(2-isobutyl-6-(pyrimidin-2-yl)-1H-imidazo[4,5-c]pyridin-1-yl)-5-methoxycyclohexyl)picolinamide]
< 100 nM | < 100 nM | O=C1c2cc(Cl)ccc2OCN1[C@H]1CCC[C@@H](n2c(-c3ccccc3OC(F)F)nc3cnc(-c4nc[nH]n4)cc32)C1 [compound 205]
100 to 500 nM | < 100 nM | O=C(N[C@H]1CCC[C@@H](n2c(-c3ccccc3F)nc3cnc(-c4nc[nH]n4)cc32)C1)c1ccccc1Cl [Example 3, 2-chloro-N-((1S,3R)-3-(2-(2-fluorophenyl)-6-(1H-1,2,4-triazol-3-yl)-1H-imidazo[4,5-c]pyridin-1-yl)cyclohexyl)benzamide]
